The text below walks through data of patent US11058702B2 (EMEK, Inc., priority 2014, dated 2021).

Test [1] deals with IPdR oxidase activity of human intestine cytosol.
Test [2] has as its target T1, human liver IPdR-aldehyde oxidase (Homo sapiens, UniProt Q06278).
T1 sequence (Q06278 1-1338): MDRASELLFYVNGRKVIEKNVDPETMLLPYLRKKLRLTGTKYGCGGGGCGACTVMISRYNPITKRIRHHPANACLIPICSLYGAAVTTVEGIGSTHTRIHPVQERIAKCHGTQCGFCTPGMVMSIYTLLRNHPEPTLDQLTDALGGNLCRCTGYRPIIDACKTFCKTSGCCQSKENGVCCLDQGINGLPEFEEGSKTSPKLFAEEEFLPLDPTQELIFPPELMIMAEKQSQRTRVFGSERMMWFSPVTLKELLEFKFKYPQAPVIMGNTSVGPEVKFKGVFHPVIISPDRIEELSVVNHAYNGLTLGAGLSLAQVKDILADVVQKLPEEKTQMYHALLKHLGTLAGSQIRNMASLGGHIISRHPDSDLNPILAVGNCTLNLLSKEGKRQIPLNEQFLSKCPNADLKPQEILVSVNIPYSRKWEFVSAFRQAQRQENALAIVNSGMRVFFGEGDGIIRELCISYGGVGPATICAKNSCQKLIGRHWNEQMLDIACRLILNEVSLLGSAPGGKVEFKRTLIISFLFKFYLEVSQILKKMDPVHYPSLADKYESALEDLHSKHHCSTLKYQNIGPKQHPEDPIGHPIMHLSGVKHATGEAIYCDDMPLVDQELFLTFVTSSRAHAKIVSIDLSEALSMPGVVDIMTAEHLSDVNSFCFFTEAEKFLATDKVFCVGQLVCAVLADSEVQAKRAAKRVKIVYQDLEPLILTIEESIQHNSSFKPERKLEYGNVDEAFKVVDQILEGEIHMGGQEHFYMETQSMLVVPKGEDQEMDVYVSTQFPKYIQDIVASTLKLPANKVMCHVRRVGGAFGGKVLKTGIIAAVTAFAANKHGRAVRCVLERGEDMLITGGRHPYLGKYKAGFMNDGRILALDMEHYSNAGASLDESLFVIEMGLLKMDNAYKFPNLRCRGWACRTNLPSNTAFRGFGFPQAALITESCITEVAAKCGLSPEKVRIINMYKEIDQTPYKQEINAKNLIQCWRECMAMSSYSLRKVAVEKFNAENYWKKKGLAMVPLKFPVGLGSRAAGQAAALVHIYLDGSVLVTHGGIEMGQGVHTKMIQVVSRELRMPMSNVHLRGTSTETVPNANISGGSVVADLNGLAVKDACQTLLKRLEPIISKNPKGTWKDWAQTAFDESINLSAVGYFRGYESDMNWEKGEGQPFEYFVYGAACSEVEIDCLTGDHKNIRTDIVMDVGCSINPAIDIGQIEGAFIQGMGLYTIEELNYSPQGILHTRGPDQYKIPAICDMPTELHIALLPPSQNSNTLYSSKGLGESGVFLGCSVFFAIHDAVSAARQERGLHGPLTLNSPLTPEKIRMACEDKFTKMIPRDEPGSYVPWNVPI
To be noted: low concentrations.

Test [3] concerns locally advanced rectal cancer. To be noted: cited from earlier work.
The next test concerns head & neck cancers. The note with it: cis-platin+definitive RT, cCR achieved; cited from earlier work.

Regarding `COc1ccc(C=O)cc1O` [isovanillin], the “effect on human small intestine IPdR oxidase activity” value in test [1] is recorded as “not inhibited”. Further, the “effect on human liver IPdR-aldehyde oxidase” value in test [2] was “inhibited”. In the case of `CC1=CC(=O)c2ccccc2C1=O` [menadione], the “effect on human small intestine IPdR oxidase activity” value in test [1] is listed as “stimulated”. Regarding `O=C1[O][Pt]2([NH][C@@H]3CCCC[C@H]3[NH]2)[O]C1=O` [oxaliplatin], in test [3] (with increased normal tissue complications), the “effect on pCR rate when added during pre-operative RT+FP” value was “without any improvement in pCR rate”. Take `Oc1ncnc2[nH]ncc12` [allopurinol]: the “effect on human small intestine IPdR oxidase activity” value in test [1] is listed as “not inhibited”. Further, the “effect on human liver IPdR-aldehyde oxidase” value in test [2] is on record as “not”. For the molecule `N.N.[Cl][Pt][Cl]` [cis-platin, cis-diamminedichloroplatinum II], the cure rate result with head & neck cancers is on record as “approximately 60%”. With `CCCCCOC(=O)Nc1nc(=O)n([C@@H]2O[C@H](C)[C@@H](O)[C@H]2O)cc1F` [capecitabine], the pCR rate in test [3] (neoadjuvant capecitabine+RT, Stage III rectal patients) is given as 10-15%.
